Assay results taken from the NIST ThermoML archive (doi:10.1016/j.jct.2012.08.010).

Assay: xn = mol fraction of the nth substance listed
Settings: 101 kPa, Liquid, Vibrating tube method

C=C[Si]1(C)O[Si](C)(C=C)O[Si](C)(C=C)O[Si](C)(C=C)O1 (stereo not given) [2,4,6,8-tetramethyl-2,4,6,8-tetravinylcycloterasiloxane] + CCc1ccccc1
mass density [kg/m3]
Settings	288.15 K	298.15 K	308.15 K	318.15 K	328.15 K
x1 = 0.0501	887.7	878.79	869.83	860.83	851.79
x1 = 0.1045	902.53	893.47	884.37	875.24	866.11
x1 = 0.1504	913.16	904	894.77	885.58	876.37
x1 = 0.2005	923.2	913.94	904.59	895.29	885.99
x1 = 0.2502	931.85	922.49	913.05	903.69	894.31
x1 = 0.3023	939.76	930.31	920.8	911.36	901.91
x1 = 0.3443	945.44	935.9	926.4	916.84	907.26
x1 = 0.3988	952.02	942.4	932.8	923.14	913.48
x1 = 0.4491	957.43	947.75	938.01	928.31	918.61
x1 = 0.499	962.24	952.49	942.68	932.88	923.08
x1 = 0.5497	966.67	956.86	946.99	937.14	927.3
x1 = 0.5979	970.47	960.6	950.7	940.8	930.9
x1 = 0.6498	974.27	964.35	954.39	944.46	934.51
x1 = 0.6946	977.23	967.27	957.29	947.3	937.32
x1 = 0.7486	980.54	970.52	960.48	950.44	940.38
x1 = 0.7994	983.4	973.34	963.28	953.21	943.13
x1 = 0.8489	985.97	975.86	965.78	955.67	945.56
x1 = 0.9467	990.55	980.33	970.21	960.03	949.84
x1 = 1	992.74	982.54	972.34	962.14	951.94

C=C[Si]1(C)O[Si](C)(C=C)O[Si](C)(C=C)O[Si](C)(C=C)O1 (stereo not given) [2,4,6,8-tetramethyl-2,4,6,8-tetravinylcycloterasiloxane] + Cc1ccc(C)cc1
mass density [kg/m3]
Settings	288.15 K	298.15 K	308.15 K	318.15 K	328.15 K
x1 = 0.0501	882.57	873.71	864.79	855.81	846.77
x1 = 0.1045	898.18	889.15	879.99	870.82	861.58
x1 = 0.1528	909.95	900.78	891.46	882.13	872.74
x1 = 0.2005	919.97	910.61	901.17	891.84	882.31
x1 = 0.25	929.05	919.68	910.08	900.53	890.92
x1 = 0.3017	937.34	927.86	918.16	908.52	898.83
x1 = 0.3444	943.41	933.87	924.09	914.37	904.6
x1 = 0.3985	950.18	940.53	930.74	920.97	911.16
x1 = 0.4489	955.85	946.14	936.28	926.45	916.57
x1 = 0.4989	960.92	951.15	941.23	931.34	921.41
x1 = 0.5495	965.55	955.72	945.76	935.82	925.84
x1 = 0.5985	969.61	959.72	949.73	939.75	929.74
x1 = 0.649	973.48	963.54	953.51	943.48	933.43
x1 = 0.6941	976.62	966.59	956.55	946.5	936.42
x1 = 0.7484	980.08	970.08	959.96	949.86	939.75
x1 = 0.7992	983.04	972.97	962.87	952.74	942.62
x1 = 0.8375	985.13	975.04	964.91	954.76	944.62
x1 = 0.9462	990.42	980.26	970.11	959.92	949.73
x1 = 1	992.74	982.54	972.34	962.14	951.94

C=C[Si]1(C)O[Si](C)(C=C)O[Si](C)(C=C)O[Si](C)(C=C)O1 (stereo not given) [2,4,6,8-tetramethyl-2,4,6,8-tetravinylcycloterasiloxane] + Cc1cccc(C)c1
mass density [kg/m3]
Settings	288.15 K	298.15 K	308.15 K	318.15 K	328.15 K
x1 = 0.05	885.05	876.18	867.36	858.49	849.53
x1 = 0.1062	900.56	891.58	882.48	873.4	864.24
x1 = 0.1505	910.91	901.78	892.55	883.33	874.04
x1 = 0.2005	921.17	911.87	902.51	893.18	883.77
x1 = 0.2501	930.07	920.57	911.13	901.66	892.14
x1 = 0.3023	938.25	928.62	919.04	909.46	899.85
x1 = 0.3442	944.08	934.35	924.72	915.05	905.37
x1 = 0.3985	950.83	941.02	931.29	921.55	911.8
x1 = 0.4491	956.41	946.51	936.74	926.91	917.12
x1 = 0.499	961.37	951.41	941.59	931.69	921.85
x1 = 0.5495	965.9	955.89	946	936.07	926.17
x1 = 0.5981	969.84	959.8	949.86	939.92	929.94
x1 = 0.6498	973.72	963.58	953.57	943.62	933.58
x1 = 0.6946	976.79	966.61	956.57	946.59	936.5
x1 = 0.7483	980.15	969.99	959.9	949.87	939.74
x1 = 0.7983	983.05	972.9	962.78	952.69	942.58
x1 = 0.8489	985.74	975.61	965.47	955.35	945.21
x1 = 0.9463	990.44	980.3	970.11	959.94	949.75
x1 = 1	992.74	982.54	972.34	962.14	951.94

C=C[Si]1(C)O[Si](C)(C=C)O[Si](C)(C=C)O[Si](C)(C=C)O1 (stereo not given) [2,4,6,8-tetramethyl-2,4,6,8-tetravinylcycloterasiloxane] + Cc1ccccc1C
mass density [kg/m3]
Settings	288.15 K	298.15 K	308.15 K	318.15 K	328.15 K
x1 = 0.0501	899.27	890.61	882.01	873.28	864.53
x1 = 0.1045	912.95	904.03	895.21	886.26	877.4
x1 = 0.1503	922.61	913.54	904.57	895.48	886.45
x1 = 0.2004	931.72	922.5	913.37	904.14	894.98
x1 = 0.2501	939.54	930.19	920.94	911.57	902.32
x1 = 0.3022	946.69	937.18	927.81	918.32	909.02
x1 = 0.3443	951.7	942.14	932.7	923.13	913.69
x1 = 0.3987	957.55	947.88	938.35	928.69	919.16
x1 = 0.4487	962.3	952.55	942.93	933.19	923.59
x1 = 0.499	966.62	956.77	947.08	937.26	927.63
x1 = 0.549	970.42	960.52	950.76	940.89	931.18
x1 = 0.598	973.72	963.78	954.02	944.1	934.32
x1 = 0.6483	976.93	966.95	957.08	947.12	937.26
x1 = 0.6945	979.61	969.55	959.65	949.64	939.74
x1 = 0.7483	982.42	972.33	962.38	952.33	942.34
x1 = 0.7987	984.81	974.7	964.71	954.64	944.57
x1 = 0.8489	987.06	976.91	966.88	956.77	946.68
x1 = 0.9426	990.76	980.56	970.47	960.3	950.08
x1 = 1	992.74	982.54	972.34	962.14	951.94
